Experimental findings from patent US11840913B2, “Methods for stimulation of hydrocarbon-bearing formations while inhibiting corrosion of metal surfaces contacted by acid solutions used in stimulation” (Fluid Energy Group Ltd., priority 2019, dated 2023) are described below.

A short description of test [1]: Corrosion testing of 316 steel coupons in acidic fluids with corrosion inhibitors. The source says: Corrosion inhibitor compositions according to preferred embodiments of the present invention were exposed to corrosion testing. Various steel grades (stainless steel and carbon steel) were subjected to acid compositions comprising corrosion inhibitors according to the present invention against known corrosion inhibitors to the listed compositions for various periods of time at varying temperatures. A desirable corrosion inhibition result was one where the lb/ft^2 corrosion number is at or below 0.05. More preferably, that number is at or below 0.02.
33% HCl:MEA in a 5.5:1 ratio and 50% HCl:MEA in a 5.5:1 ratio indicate the volume amount of the original concentration of a stock solution containing HCl and monoethanolamine in a ratio of 5.5:1. The HCl loading of a 33% HCl:MEA in a 5.5:1 ratio is approximately 6.5% HCl. The HCl loading of 50% HCl:MEA in a 5.5:1 ratio is approximately 10% HCl.

Test [2] can be described thus: Visual corrosion testing on grease-coated wireline (Example 7). The note with it: MEA-HCl 1:4.1 molar ratio at 33% dilution in water; 48 hours; 60° C. The method, then:
A visual corrosion testing was carried out on wireline using three different coatings.
It is worth noting that the acid strength was the same in all three samples and the acidic composition only differed between the first two samples and the last sample with the presence of component B2.

For `CC(C)=CCCC(C)=CC=O` (racemic) [citral, (±)-3,7-Dimethyl-2,6-octadienal], the prevention of pitting result in test [1] (higher temperatures (even 110° C. to 120° C.)) is given as “some effectiveness”. Besides, the “visual inspection of wireline wire sheathing after acid exposure” value in test [2] is on record as “completely stripped of its wire sheathing”.

Consider `O=CC=Cc1ccccc1` [ZA, cinnamaldehyde], for which the “film forming, protection of the stainless steel” value in test [1] (90° C. to 110° C.) is reported as “effective film former”.
